Experimental findings from patent publication US6534501B2, “Allosteric inhibitors of pyruvate kinase” (Allos Therapeutics, Inc., priority 1998, dated 2003) are described below.

In data set [1] the target is T1, Human Erythrocyte Pyruvate Kinase (R-PK) (Homo sapiens, UniProt P30613).
T1 construct: The four units of human whole blood obtained from the Blood Bank; from tissue
Kind of data set: PK activity assay coupled with lactate dehydrogenase (NADH oxidation at 340 nm). It is filed as biochemical. The settings on record: for IC50: stock solutions in DMSO, dose-response of FIG. 6, read-out: IC50 (R-PK inhibition). How it is done:
PK activity was measured using the assay conditions that are recommended by the International Committee for Standardization in Hematology (ICSH). […] The positive cooperativity of substrate binding is clearly seen from the upward curvature in the Lineweaver plot. The experimental data were fit to the Hill equation. The derived parameters were K0.5S=2.37 mM and Hill coefficient (nH) of 1.41.
Phenlyalanine has long been known as an allosteric inhibitor of PK. […] It can be seen from FIG. 2 that an increase in the concentration of phenlyalanine results in a decreased affinity and a more pronounced sigmoidity of the substrate binding. When phenylalanine increases from 0 to 30 mM, the K0.5S increases by 2.5 folds and nH increases by 1.4 folds, respectively. To avoid fluctuations in measurement of PK parameters, all experiments reported herein and assays were performed using the same batch of preparation and under identical conditions.
PK activity is measured by coupling it with lactate dehydrogenase, which transforms pyruvate into lactate and oxidizes NADH into NAD. A reduction of oxidation of NADH is followed at 340 nm using the 96 well plate in a Spectramax spectrophotometer (Molecular Devices, Ca.).
The assay buffer (100 mM Tris pH 7.5) was prepared by dissolving TRIS 100 mM, KCl 100 mM, EDTA 0.5 mM, and 10 MM MgCl2 in deionized water. The pH of the solution was adjusted to 7.5 by adding a small amount of TRIS. The stock solution of NADH (20 mM), ADP 100 mM (neutralized), LDH 500 IU/ml and PEP 100 mM were prepared in the assay buffer. The following quantities of reagents were added to make 1 ml of assay solution.
The contents were mixed and incubated for five minutes at 37° C. Then, 50 μl of PEP was added and the absorbance changes were followed at 340 nm. The initial reaction velocity in AU/min was then calculated.
The control samples in each experiment were incubated under the same conditions as without any compound. In all cases, the experiments were begun after saturation with PEP. The percent inhibition of PK activity was calculated by subtracting the activity of the control sample from the activity in the presence of compound.
Compounds 4(1) through 4(12) thus obtained were tested.
The percent activity values presented in FIG. 5 represent an average of six independent experiments. All examined compounds were prepared as stock solutions in DMSO.
As a control for FIG. 5, the assay was performed with DMSO, but no compound.
Otherwise, the dose-response for R-PK in FIG. 5 in this Example 5 was performed as described in the above Examples.

The mark [2] stands for this setting: compound concentration 0.5 mM, pH 7.5, 37° C., after saturation with PEP.
The mark [3] stands for this setting: compound concentration 2 mM, pH 7.5, 37° C., after saturation with PEP.
The mark [4] stands for this setting: phenylalanine increases from 0 to 30 mM.

T1 sequence (P30613 whole entry): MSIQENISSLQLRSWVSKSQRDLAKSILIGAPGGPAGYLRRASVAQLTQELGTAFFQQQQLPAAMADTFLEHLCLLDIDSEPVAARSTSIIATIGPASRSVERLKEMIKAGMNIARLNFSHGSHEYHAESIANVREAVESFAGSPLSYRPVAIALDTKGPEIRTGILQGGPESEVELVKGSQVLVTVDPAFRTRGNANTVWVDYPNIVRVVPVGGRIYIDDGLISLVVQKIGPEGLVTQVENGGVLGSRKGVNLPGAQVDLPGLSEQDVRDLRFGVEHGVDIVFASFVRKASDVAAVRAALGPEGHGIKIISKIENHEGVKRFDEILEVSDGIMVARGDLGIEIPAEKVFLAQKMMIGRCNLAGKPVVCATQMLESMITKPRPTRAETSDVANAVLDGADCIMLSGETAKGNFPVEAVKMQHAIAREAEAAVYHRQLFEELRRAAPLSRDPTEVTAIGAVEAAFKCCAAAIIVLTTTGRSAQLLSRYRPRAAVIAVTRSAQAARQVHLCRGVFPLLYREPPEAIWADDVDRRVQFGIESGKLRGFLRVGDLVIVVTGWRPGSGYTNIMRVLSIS

As to “2-(9-Ethyl-9H-carbazol-3-ylvinylideneamino)-1-(4-nitrobenzoate) [(5)]”, the IC50 in data set [1] was determined as 17.4 µM. Consider “2-phenylethyloxy-5-formylbenzoic acid [TB 32]”, for which the “% PK Inhibition” value in data set [1] (setting [2]) was 48%; in data set [1] (setting [3]) it was 77%; in data set [1] (compound concentration 3 mM, pH 7.5, 37° C., after saturation with PEP) it was 80%. Take “3-(2-{1-(3-Chlorophenyl)-1(3-hydroxyphenyl)-ureido]-ethyl}-4-oxo-4H-quinazolin-3-yl)-propionic acid [(4)]”: the IC50 in data set [1] was found to be 16.1 µM.

Consider `CCCCN(Cc1c2ccccc2c(Cl)c2ccccc12)C(=O)NCC(=O)OCC` [(1), [3-Butyl-3-(10-chloro-anthracen-9-ylmethyl)-ureido]-acetic acid ethyl ester], for which, in data set [1], the IC50 was greater than 50 µM. Turning to `Cc1cccc2nc3cccc(C(=O)Nc4ccccc4C(=O)O)c3nc12` [(2), 2-[(9-Methyl-phenazine-1-carbonyl)-amino]-benzoic acid], the IC50 in data set [1] was found to be 8.9 µM. For `O=c1oc(Nc2ccc(Cl)cc2)nc2ccccc12` [(3), 2-(4-Chloro-phenylamino)-benzo[d][1,3]oxazin-4-one], the IC50 in data set [1] was found to be 20.9 µM. Regarding `CCc1nc2ccccc2c(=O)n1CCc1cn(COC(=O)CCl)c2ccccc12` [(6), Chloroacetic acid 3-[2-(2-ethyl-4-oxo-4H-quinazolin-3-yl)ethyl]-indol-lylmethylester], in data set [1], the half-inhibitory concentration (IC50) was 12.1 µM. `COC(=O)c1sc(-c2ccc(Cl)cc2)cc1NCc1ccccc1` [(7), 3-Benzylamino-5-(4-chlorophenyl)-4H-1λ^4-thiophene-2-carboxylic acid methyl ester]: the IC50 in data set [1] is 16.9 µM. On the same count and under the same terms, under `COC(=O)c1cc(Oc2ccc(C(=O)OC)cc2NC(=O)c2cc(Cl)cc(Cl)c2)cc(C(=O)OC)c1` [(8), 5-[2-(3,5-Dichlorobenzoylamino)-4-methoxycarbonyl-phenoxy]-isophtahlic acid dimethyl ester] stands 9 µM; under `COC(=O)c1cc(Oc2ccc(C(=O)OC)cc2NC(=O)NC2CCCCC2)cc(C(=O)OC)c1` [(9), 5-[2-(3-Cyclohexyl-ureido)-4-methoxycarbonyl-phenoxy]-isophtahlic acid dimethyl ester], 9.4 µM. For `N[C@@H](Cc1ccccc1)C(=O)O` [L-Phenylalanine, reference compound], 10000 µM produced 15% inhibition in data set [1] (compound concentration 10 mM, pH 7.5, 37° C., after saturation with PEP). This compound displayed an inhibition at 30000 µM in data set [1] (compound concentration 30 mM, pH 7.5, 37° C., after saturation with PEP) of 72%. Besides, in data set [1] (setting [4]), the “increase of Hill coefficient nH” value was determined as 1.4 folds and the “increase of K0.5S (PEP)” value is on record as 2.5 folds.

The compound `COc1ccc(OCCCCCC(=O)O)c(C=O)c1` [TB 88, 6-(2-formyl-4-methoxyphenoxy)hexanoic acid] returned an inhibition at 500 µM in data set [1] (setting [2]) of 16%. The same compound returned an inhibition at 2500 µM in data set [1] (compound concentration 2.5 mM, pH 7.5, 37° C., after saturation with PEP) of 28%. `Cc1ccc(OCCCCCC(=O)O)c(C=O)c1` [TB 154, 6-(2-formyl-4-methylphenoxy)hexanoic acid] had a melting point of 97 to 99 °C. This compound also registered an inhibition at 500 µM in data set [1] (setting [2]) of 19%. Further, in data set [1] (setting [3]), testing at 2000 µM gave an inhibition of 28%. As to `CCC(CCCCC(=O)O)Oc1ccc([N+](=O)[O-])cc1C=O` (stereo not shown) [TDD 57, 6-(2-formyl-4-nitrophenoxy)octanoic Acid], in data set [1] (setting [2]), the inhibition at 500 µM turned out to be 36%.

The IC50 is the concentration that inhibits the measured activity by half. A word on the inhibition: it is the percentage by which the read-out fell short of the control. A high value points to strong suppression. Broadly, the melting point is the temperature, or range, at which the solid turns liquid.
